Measured values: patent publication US7138361B2, “Herbicidal heterocycles” (E. I. du Pont de Nemours and Company, priority 2000, dated 2006)

Tests used:
Format in all cases: in vivo
[1] = system: Surinam grass (Brachiaria decumbens); assay: Test B preemergence
Method in brief: (§1)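 Preemergence: seeds planted and treated with test chemicals in non-phytotoxic solvent with surfactant; postemergence on plants 2–18 cm (1- to 4-leaf stage). Kept in greenhouse 13–15 days, then visually rated against controls on a 0 (no effect) to 100 (complete control) scale.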

[2] = system: cocklebur (Xanthium strumarium); assay: Test B preemergence
Method in brief: as §1

[3] = system: corn (Zea mays); assay: Test B preemergence
Method in brief: as §1

[4] = system: crabgrass (Digitaria sanguinalis); assay: Test B preemergence
Method in brief: as §1

[5] = system: giant foxtail (Setaria faberii); assay: Test B preemergence
Method in brief: as §1

[6] = system: lambsquarters (Chenopodium album); assay: Test B preemergence
Method in brief: as §1

[7] = system: morning glory (Ipomoea hederacea); assay: Test B preemergence
Method in brief: as §1

[8] = system: pigweed (Amaranthus retroflexus); assay: Test B preemergence
Method in brief: as §1

[9] = system: rice (Oryza saliva); assay: Test B preemergence
Method in brief: as §1

[10] = system: velvetleaf (Abutilon theophrasti); assay: Test B preemergence
Method in brief: as §1

[11] = system: bermudagrass (Cynodon dactylon); assay: Test C postemergence
Method in brief: (§2)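 Plants held in greenhouse for 12–14 days post-application are scored by eye against controls on a 0–100 control scale. Application timing: preemergence on sown seed, or postemergence on 2–18 cm plants.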

[12] = system: corn (Zea mays); assay: Test C postemergence
Method in brief: as §2

[13] = system: crabgrass (Digitaria sanguinalis); assay: Test C postemergence
Method in brief: as §2

[14] = system: giant foxtail (Setaria faberii); assay: Test C postemergence
Method in brief: as §2

[15] = system: goosegrass (Eleusine indica); assay: Test C postemergence
Method in brief: as §2

[16] = system: kochia (Kochia scoparia); assay: Test C postemergence
Method in brief: as §2

[17] = system: lambsquarters (Chenopodium album); assay: Test C postemergence
Method in brief: as §2

[18] = system: morningglory (Ipomoea hederacea); assay: Test C postemergence
Method in brief: as §2

[19] = system: pigweed (Amaranthus retroflexus); assay: Test C postemergence
Method in brief: as §2

[20] = system: soybean (Glycine max); assay: Test C postemergence
Method in brief: as §2

[21] = system: velvetleaf (Abutilon theophrasti); assay: Test C postemergence
Method in brief: as §2

[22] = system: woolly cupgrass (Eriochloa villosa); assay: Test C postemergence
Method in brief: as §2

[23] = system: yellow nutsedge (Cyperus esculentus); assay: Test C postemergence
Method in brief: as §2

[24] = Preemergence, Rate 500 g/ha, scale 0 to 100, 0 no effect, 100 complete control
[25] = preemergence, Rate 125 g/ha, scale of 0 to 100 where 0 is no effect and 100 is complete control, 13 to 15 days
[26] = Rate 125 g/ha, scale 0 to 100, 0 no effect, 100 complete control
[27] = Rate 250 g/ha, scale 0 to 100 (0 no effect, 100 complete control)
[28] = Rate 500 g/ha, scale 0 to 100 (0 no effect, 100 complete control)

COc1cc(N2CCC(n3ccc(C(C)(C)C)n3)C2=O)ccc1Cl (centres unmarked) [Compound 117]
100: Plant response rating, Surinam grass [1, 24] | Plant response rating, Surinam grass [1, 25] | Plant response rating, Cocklebur [2, 24] | Plant response rating, Crabgrass [4, 24] | Plant response rating, Crabgrass [4, 25] | Plant response rating, Foxtail, Giant [5, 24] | Plant response rating, Foxtail, Giant [5, 25] | Plant response rating, Lambsquarters [6, 24] | Plant response rating, Lambsquarters [6, 25] | Plant response rating, Morningglory [7, 24] | Plant response rating, Pigweed [8, 24] | Plant response rating, Pigweed [8, 25] | Plant response rating, Velvetleaf [10, 24] | Plant response rating, Goosegrass [15, 28] | Plant response rating, Lambsquarters [17, 28] | Plant response rating, Morningglory ([18]; Rate 62 g/ha, scale 0 to 100) | Plant response rating, Morningglory [18, 27] | Plant response rating, Morningglory [18, 28] | Plant response rating, Pigweed [19, 28]
90: Plant response rating, Kochia [16, 28] | Plant response rating, Pigweed [19, 27] | Plant response rating, Soybean [20, 28]
70: Plant response rating, Cocklebur [2, 25] | Plant response rating, Rice [9, 24] | Plant response rating, Goosegrass [15, 27]
10: Plant response rating, Corn [12, 28] | Plant response rating, Crabgrass [13, 27] | Plant response rating, Crabgrass [13, 28] | Plant response rating, Goosegrass ([15]; Rate 62 g/ha, scale 0 to 100)
50: Plant response rating, Bermudagrass [11, 26] | Plant response rating, Bermudagrass [11, 27] | Plant response rating, Soybean ([20]; Rate 62 g/ha, scale 0 to 100)
60: Plant response rating, Foxtail, Giant [14, 28] | Plant response rating, Pigweed ([19]; Rate 62 g/ha, scale 0 to 100) | Plant response rating, Velvetleaf [21, 28]
40: Plant response rating, Velvetleaf [10, 25] | Plant response rating, Cupgrass, Woolly [22, 27]
45: Plant response rating, Cupgrass, Woolly [22, 28]
80: Plant response rating, Morningglory [7, 25] | Plant response rating, Kochia ([16]; Rate 62 g/ha, scale 0 to 100)
75: Plant response rating, Lambsquarters ([17]; Rate 62 g/ha, scale 0 to 100)
95: Plant response rating, Bermudagrass [11, 28] | Plant response rating, Lambsquarters [17, 27]
35: Plant response rating, Velvetleaf [21, 27] | Plant response rating, Velvetleaf ([21]; scale 0 to 100)
0: Plant response rating, Rice [9, 25] | Plant response rating, Bermudagrass ([11]; Rate 62 g/ha, scale 0 to 100) | Plant response rating, Corn ([12]; Rate 62 g/ha, scale 0 to 100) | Plant response rating, Corn [12, 27] | Plant response rating, Corn ([12]; scale 0 to 100) | Plant response rating, Crabgrass ([13]; Rate 62 g/ha, scale 0 to 100) | Plant response rating, Foxtail, Giant ([14]; Rate 62 g/ha, scale 0 to 100) | Plant response rating, Cupgrass, Woolly ([22]; Rate 62 g/ha, scale 0 to 100) | Plant response rating, Nutsedge ([23]; Rate 62 g/ha, scale 0 to 100) | Plant response rating, Nutsedge [23, 27] | Plant response rating, Nutsedge [23, 28]
85: Plant response rating, Kochia [16, 27] | Plant response rating, Soybean [20, 27]
20: Plant response rating, Corn [3, 25] | Plant response rating, Velvetleaf ([21]; Rate 62 g/ha, scale 0 to 100)
30: Plant response rating, Corn [3, 24] | Plant response rating, Foxtail, Giant [14, 27]

CCC(C)c1ccn(C2CCN(c3ccc(Cl)c(OC)c3)C2=O)n1 (centres unmarked) [Compound 119]
70: Plant response rating, Morningglory [7, 24] | Plant response rating, Velvetleaf [10, 24]
90: Plant response rating, Kochia [16, 27] | Plant response rating, Kochia [16, 28] | Plant response rating, Lambsquarters ([17]; Rate 62 g/ha, scale 0 to 100) | Plant response rating, Lambsquarters [17, 27] | Plant response rating, Pigweed [19, 27] | Plant response rating, Soybean [20, 28]
50: Plant response rating, Morningglory [7, 25] | Plant response rating, Corn [12, 28]
10: Plant response rating, Rice [9, 25] | Plant response rating, Velvetleaf [21, 27]
30: Plant response rating, Cocklebur [2, 24] | Plant response rating, Cocklebur [2, 25] | Plant response rating, Velvetleaf [10, 25] | Plant response rating, Crabgrass ([13]; Rate 62 g/ha, scale 0 to 100) | Plant response rating, Crabgrass [13, 27] | Plant response rating, Goosegrass [15, 28]
100: Plant response rating, Surinam grass [1, 24] | Plant response rating, Surinam grass [1, 25] | Plant response rating, Crabgrass [4, 24] | Plant response rating, Crabgrass [4, 25] | Plant response rating, Foxtail, Giant [5, 24] | Plant response rating, Foxtail, Giant [5, 25] | Plant response rating, Lambsquarters [6, 24] | Plant response rating, Lambsquarters [6, 25] | Plant response rating, Pigweed [8, 24] | Plant response rating, Pigweed [8, 25] | Plant response rating, Lambsquarters [17, 28] | Plant response rating, Morningglory [18, 27]
0: Plant response rating, Corn [3, 25] | Plant response rating, Bermudagrass ([11]; Rate 62 g/ha, scale 0 to 100) | Plant response rating, Bermudagrass [11, 26] | Plant response rating, Bermudagrass [11, 27] | Plant response rating, Bermudagrass [11, 28] | Plant response rating, Foxtail, Giant ([14]; Rate 62 g/ha, scale 0 to 100) | Plant response rating, Foxtail, Giant [14, 27] | Plant response rating, Goosegrass ([15]; Rate 62 g/ha, scale 0 to 100) | Plant response rating, Goosegrass [15, 27] | Plant response rating, Velvetleaf ([21]; Rate 62 g/ha, scale 0 to 100) | Plant response rating, Velvetleaf ([21]; scale 0 to 100) | Plant response rating, Cupgrass, Woolly ([22]; Rate 62 g/ha, scale 0 to 100) | Plant response rating, Cupgrass, Woolly [22, 27] | Plant response rating, Nutsedge ([23]; Rate 62 g/ha, scale 0 to 100) | Plant response rating, Nutsedge [23, 27] | Plant response rating, Nutsedge [23, 28]
20: Plant response rating, Rice [9, 24] | Plant response rating, Corn ([12]; Rate 62 g/ha, scale 0 to 100) | Plant response rating, Corn [12, 27] | Plant response rating, Corn ([12]; scale 0 to 100) | Plant response rating, Velvetleaf [21, 28] | Plant response rating, Cupgrass, Woolly [22, 28]
80: Plant response rating, Foxtail, Giant [14, 28] | Plant response rating, Morningglory ([18]; Rate 62 g/ha, scale 0 to 100) | Plant response rating, Soybean [20, 27]
60: Plant response rating, Crabgrass [13, 28] | Plant response rating, Kochia ([16]; Rate 62 g/ha, scale 0 to 100)
40: Plant response rating, Corn [3, 24] | Plant response rating, Pigweed ([19]; Rate 62 g/ha, scale 0 to 100) | Plant response rating, Soybean ([20]; Rate 62 g/ha, scale 0 to 100)

CCC(CC)c1ccn(C2OCN(c3cccc(OC(F)F)c3)C2=O)n1 (centres unmarked) [Compound 131]
60: Plant response rating, Bermudagrass [11, 26] | Plant response rating, Kochia ([16]; Rate 62 g/ha, scale 0 to 100)
50: Plant response rating, Corn [3, 24] | Plant response rating, Foxtail, Giant [14, 27] | Plant response rating, Soybean [20, 28]
40: Plant response rating, Corn [3, 25] | Plant response rating, Velvetleaf [10, 24] | Plant response rating, Goosegrass ([15]; Rate 62 g/ha, scale 0 to 100)
70: Plant response rating, Rice [9, 25] | Plant response rating, Goosegrass [15, 27] | Plant response rating, Cupgrass, Woolly [22, 27]
100: Plant response rating, Surinam grass [1, 24] | Plant response rating, Surinam grass [1, 25] | Plant response rating, Crabgrass [4, 24] | Plant response rating, Crabgrass [4, 25] | Plant response rating, Foxtail, Giant [5, 24] | Plant response rating, Foxtail, Giant [5, 25] | Plant response rating, Lambsquarters [6, 24] | Plant response rating, Lambsquarters [6, 25] | Plant response rating, Pigweed [8, 24] | Plant response rating, Pigweed [8, 25] | Plant response rating, Rice [9, 24] | Plant response rating, Lambsquarters ([17]; Rate 62 g/ha, scale 0 to 100) | Plant response rating, Lambsquarters [17, 27] | Plant response rating, Lambsquarters [17, 28] | Plant response rating, Morningglory [18, 28] | Plant response rating, Pigweed [19, 28]
30: Plant response rating, Cocklebur [2, 24] | Plant response rating, Corn [12, 28] | Plant response rating, Soybean [20, 27] | Plant response rating, Velvetleaf [21, 28]
90: Plant response rating, Morningglory [7, 24] | Plant response rating, Bermudagrass [11, 27] | Plant response rating, Bermudagrass [11, 28] | Plant response rating, Crabgrass [13, 28] | Plant response rating, Kochia [16, 28] | Plant response rating, Pigweed [19, 27]
20: Plant response rating, Bermudagrass ([11]; Rate 62 g/ha, scale 0 to 100) | Plant response rating, Corn [12, 27] | Plant response rating, Foxtail, Giant ([14]; Rate 62 g/ha, scale 0 to 100) | Plant response rating, Pigweed ([19]; Rate 62 g/ha, scale 0 to 100) | Plant response rating, Soybean ([20]; Rate 62 g/ha, scale 0 to 100) | Plant response rating, Velvetleaf ([21]; Rate 62 g/ha, scale 0 to 100) | Plant response rating, Velvetleaf [21, 27] | Plant response rating, Velvetleaf ([21]; scale 0 to 100)
0: Plant response rating, Cocklebur [2, 25] | Plant response rating, Morningglory [7, 25] | Plant response rating, Velvetleaf [10, 25] | Plant response rating, Corn ([12]; Rate 62 g/ha, scale 0 to 100) | Plant response rating, Nutsedge ([23]; Rate 62 g/ha, scale 0 to 100) | Plant response rating, Nutsedge [23, 27] | Plant response rating, Nutsedge [23, 28]
10: Plant response rating, Corn ([12]; scale 0 to 100) | Plant response rating, Cupgrass, Woolly ([22]; Rate 62 g/ha, scale 0 to 100)
80: Plant response rating, Crabgrass [13, 27] | Plant response rating, Foxtail, Giant [14, 28] | Plant response rating, Goosegrass [15, 28] | Plant response rating, Kochia [16, 27] | Plant response rating, Morningglory [18, 27] | Plant response rating, Cupgrass, Woolly [22, 28]
